Results from US10961309B2, “Reducing systemic regulatory T cell levels or activity for treatment of disease and injury of the CNS” (Yeda Research and Development Co. Ltd, priority 2014, dated 2021).
Entries after “also recorded” stand apart in the source; their conditions may differ.

Assays:
Format in all cases: in vivo, mouse
Aβ plaques = assay: Aβ plaque quantitation (immunohistochemistry)
Description: Tissue processing and immunohistochemistry were performed on paraffin embedded sectioned mouse (6 μm thick) and human (10 μm thick) brains. For human ICAM-1 staining, primary mouse anti-ICAM (1:20 Abcam; ab2213) antibody was used. Slides were incubated for 10 min with 3% H2O2, and a secondary biotin-conjugated anti-mouse antibody was used, followed by biotin/avidin amplification with Vectastain ABC kit (Vector Laboratories). Subsequently, 3,3′-diaminobenzidine (DAB substrate) (Zytomed kit) was applied; slides were dehydrated and mounted with xylene-based mounting solution. For tissue stainings, mice were transcardially perfused with PBS prior to tissue excision and fixation. CP tissues were isolated under a dissecting microscope (Stemi DV4; Zeiss) from the lateral, third, and fourth ventricles of the brain. For whole mount CP staining, tissues were fixated with 2.5% paraformaldehyde (PFA) for 1 hour at 4° C., and subsequently transferred to PBS containing 0.05% sodium azide. Prior to staining, the dissected tissues were washed with PBS and blocked (20% horse serum, 0.3% Triton X-100, and PBS) for 1 h at room temperature. Whole mount staining with primary antibodies (in PBS containing 2% horse serum and 0.3% Triton X-100), or secondary antibodies, was performed for 1 h at room temperature. Each step was followed by three washes in PBS. The tissues were applied to slides, mounted with Immu-mount (9990402, from Thermo Scientific), and sealed with cover-slips. For staining of sectioned brains, two different tissue preparation protocols (paraffin embedded or microtomed free-floating sections) were applied, as previously described (Baruch et al, 2013; Kunis et al, 2013). The following primary antibodies were used: mouse anti-Aβ (1:300, Covance, #SIG-39320); rabbit anti-GFP (1:100, MBL, #598); rat anti-CD68 (1:300, eBioscience, #14-0681); rat anti-ICAM-1 (1:200, Abcam, #AB2213); goat anti-GFP (1:100, Abcam, #ab6658); rabbit anti-IBA-1 (1:300, Wako, #019-19741); goat anti-IL-10 (1:20, R&D systems, #AF519); rat anti-Foxp3 (1:20, eBioscience, #13-5773-80); rabbit anti-CD3 (1:500, Dako, #IS503); mouse anti-ZO-1, mouse anti-E-Cahedrin, and rabbit anti-Claudin-1 (all 1:100, Invitrogen, #33-9100, #33-4000, #51-9000); rabbit anti-GFAP (1:200, Dako, #Z0334). Secondary antibodies included: Cy2/Cy3/Cy5-conjugated donkey anti-mouse/goat/rabbit/rat antibodies (1:200; all from Jackson Immunoresearch). The slides were exposed to Hoechst nuclear staining (1:4000; Invitrogen Probes) for 1 min. Two negative controls were routinely used in immunostaining procedures, staining with isotype control antibody followed by secondary antibody, or staining with secondary antibody alone. For Foxp3 intracellular staining, antigen retrieval from paraffin-embedded slides was performed using Retreivagen Kit (#550524, #550527; BD Pharmingen™). Microscopic analysis, was performed using a fluorescence microscope (E800; Nikon) or laser-scanning confocal microscope (Carl Zeiss, Inc.). The fluorescence microscope was equipped with a digital camera (DXM 1200F; Nikon), and with either a 20× NA 0.50 or 40× NA 0.75 objective lens (Plan Fluor; Nikon). The confocal microscope was equipped with LSM 510 laser scanning capacity (three lasers: Ar 488, HeNe 543, and HeNe 633). Recordings were made on postfixed tissues using acquisition software (NIS-Elements, F3 [Nikon] or LSM [Carl Zeiss, Inc.]). For quantification of staining intensity, total cell and background staining was measured using ImageJ software (NIH), and intensity of specific staining was calculated, as previously described (Burgess et al, 2010). Images were cropped, merged, and optimized using Photoshop CS6 13.0 (Adobe), and were arranged using Illustrator CS5 15.1 (Adobe).
From each brain, 6 μm coronal slices were collected, and eight sections per mouse, from four different pre-determined depths throughout the region of interest (dentate gyrus or cerebral cortex) were immunostained. […]

5XFAD AD-Tg mice = assay: Radial arm water maze (RAWM)
Description: The radial-arm water maze (RAWM) was used to test spatial learning and memory, as was previously described in detail (Alamed et al, 2006). Briefly, six stainless steel inserts were placed in the tank, forming six swim arms radiating from an open central area. The escape platform was located at the end of one arm (the goal arm), 1.5 cm below the water surface, in a pool 1.1 m in diameter. The water temperature was kept between 21-22° C. Water was made opaque with milk powder. Within the testing room, only distal visual shape and object cues were available to the mice to aid in location of the submerged platform. The goal arm location remained constant for a given mouse. On day 1, mice were trained for 15 trials (spaced over 3 h), with trials alternating between a visible and hidden platform, and the last 4 trails with hidden platform only. On day 2, mice were trained for 15 trials with the hidden platform. Entry into an incorrect arm, or failure to select an arm within 15 sec, was scored as an error. Spatial learning and memory were measured by counting the number of arm entry errors or the escape latency of the mice on each trial. Training data were analyzed as the mean errors or escape latency, for training blocks of three consecutive trials.
At 10 months of age, 5XFAD Alzheimer's' disease (AD) transgenic (Tg) mice were injected i.p. with either 250 ug of anti-PD1 (RMP1-14; #BE0146; Bioxcell Lifesciences Pvt. LTD.) or control IgG (IgG2a; #BE0089; Bioxcell Lifesciences Pvt. LTD.) antibodies, on day 1 and day 4 of the experiment, and were examined 3 weeks after (schematically depicted in FIG. 11A) for their cognitive performance by radial arm water maze (RAWM) spatial learning and memory task, as was previously described in detail (Alamed et al, 2006). Briefly, on day 1 of the RAWM task, mice were trained for 15 trials (spaced over 3 h), with trials alternating between a visible and hidden platform, and the last 4 trails with hidden platform only. On day 2, mice were trained for 15 trials with the hidden platform. Entry into an incorrect arm, or failure to select an arm within 15 sec, was scored as an error. Spatial learning and memory were measured by counting the number of arm entry errors or the escape latency of the mice on each trial. Age matched untreated WT and AD-Tg mice were used as controls.

[1] = tested on: hippocampal gliosis (GFAP); assay: GFAP immunostaining (astrogliosis)
Description: Tissue processing and immunohistochemistry were performed on paraffin embedded sectioned mouse (6 μm thick) and human (10 μm thick) brains. For human ICAM-1 staining, primary mouse anti-ICAM (1:20 Abcam; ab2213) antibody was used. Slides were incubated for 10 min with 3% H2O2, and a secondary biotin-conjugated anti-mouse antibody was used, followed by biotin/avidin amplification with Vectastain ABC kit (Vector Laboratories). Subsequently, 3,3′-diaminobenzidine (DAB substrate) (Zytomed kit) was applied; slides were dehydrated and mounted with xylene-based mounting solution. For tissue stainings, mice were transcardially perfused with PBS prior to tissue excision and fixation. CP tissues were isolated under a dissecting microscope (Stemi DV4; Zeiss) from the lateral, third, and fourth ventricles of the brain. […] Microscopic analysis, was performed using a fluorescence microscope (E800; Nikon) or laser-scanning confocal microscope (Carl Zeiss, Inc.). The fluorescence microscope was equipped with a digital camera (DXM 1200F; Nikon), and with either a 20× NA 0.50 or 40× NA 0.75 objective lens (Plan Fluor; Nikon). […] For quantification of staining intensity, total cell and background staining was measured using ImageJ software (NIH), and intensity of specific staining was calculated, as previously described (Burgess et al, 2010). […]

[2] = 3 weeks after last ATRA injection, AD-Tg mice

For Glatiramer acetate [GA], the Aβ plaque load (Aβ plaques; daily-GA 100 μg s.c. for 1 month, 5XFAD AD-Tg mice) was “did not show any beneficial effect, or showed a moderate adverse effect on plaque load”, the “Aβ plaque load (percentage of total area of hippocampal dentate gyrus)” value (Aβ plaques; weekly-GA, 5XFAD AD-Tg mice) was “robust effect; also recorded: reduction in Aβ plaque load” and the “mean Aβ plaque numbers” value (Aβ plaques; weekly-GA, 5XFAD AD-Tg mice) was “reduction”. For the same compound, the “cognitive performance (spatial memory) by the RAWM task” value (5XFAD AD-Tg mice; daily-GA 100 μg s.c. for 1 month, 7-month old 5XFAD AD-Tg mice) was “either no beneficial effect on spatial memory, or a tendency towards a worsening effect”, the “duration of improved cognitive performance after the treatment” value (5XFAD AD-Tg mice; weekly-GA, 5XFAD AD-Tg mice) was “up to 2 months” and the “cognitive performance by the RAWM task” value (5XFAD AD-Tg mice; weekly-GA, 7-month old 5XFAD AD-Tg mice) was “beneficial effect”.
For Diphtheria toxin [DTx], the “hippocampal gliosis (GFAP immunostaining)” value ([1]; AD-Tg/DTR+ mice, 3 weeks after last DTx injection) was “reduced astrogliosis; also recorded: reduction in hippocampal gliosis”.
`CC1=C(/C=C/C(C)=C/C=C/C(C)=C/C(=O)O)C(C)(C)CCC1` [ATRA, All-trans retinoic acid] was tested, and the “cerebral Aβ plaque burden” value (Aβ plaques; [2]) was 2-3 fold increase, the “cognitive performance (spatial memory) in the RAWM” value (5XFAD AD-Tg mice; ATRA-treated vs vehicle-treated AD-Tg mice, 3 weeks after treatment) was “worsening of the spatial memory deficits” and the gliosis [1, 2] was 2-3 fold increase.
